Measurements reported in PubChem BioAssay AID330 (DTP/NCI, 2004).
Where “and” joins values, the source holds several entries; their conditions need not be identical. Equal values may be shown once. Toxic doses and inconclusive results are not listed. The calls were made as follows: active = survival T/C of 150% or more; inactive = T/C below 125% in these data.

Test system: P388 leukemia ip, CD2F1 mice, survival T/C
Assay: NCI In Vivo Anticancer Drug Screen. Data for tumor model P388 Leukemia (intraperitoneal) in CD2F1 (CDF1) mice
Settings: endpoint: median survival time, higher = longer survival
In short: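 Mice carrying the transplanted tumor received test compound or vehicle. Survival was recorded in each group, and the value is the treated-group measurement divided by that of the vehicle-treated control group.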

[1] = dose: 60.0 mg/kg/injection, schedule: Q01DX005 (ip), vehicle: saline with Tween-80
[2] = dose: 120.0 mg/kg/injection, schedule: Q01DX005 (ip), vehicle: saline with Tween-80
[3] = dose: 240.0 mg/kg/injection, schedule: Q01DX005 (ip), vehicle: saline with Tween-80
[4] = dose: 50.0 mg/kg/injection, schedule: Q01DX009 (ip), vehicle: saline with Tween-80
[5] = dose: 100.0 mg/kg/injection, schedule: Q01DX009 (ip), vehicle: saline with Tween-80
[6] = dose: 200.0 mg/kg/injection, schedule: Q01DX009 (ip), vehicle: saline with Tween-80
[7] = dose: 400.0 mg/kg/injection, schedule: Q01DX009 (ip), vehicle: saline with Tween-80

Measured: T/C

Cc1ccc(-c2cn3nc(-c4ccc5c(c4)OCO5)sc3n2)cc1
inactive: [1] 92 % of control | [2] 99 % of control and 89 % of control | [3] 87 % of control

CCOC(=O)C1CSC(c2ccccc2)=N1 (centres undefined)
inactive: [1] 109 % of control | [2] 111 % of control | [3] 111 % of control

c1ccc(CNc2ncccn2)nc1
inactive: dose: 50.0 mg/kg/injection, schedule: Q01DX005 (ip), vehicle: saline with Tween-80 100 % of control | dose: 100.0 mg/kg/injection, schedule: Q01DX005 (ip), vehicle: saline with Tween-80 96 % of control | dose: 200.0 mg/kg/injection, schedule: Q01DX005 (ip), vehicle: saline with Tween-80 100 % of control

Cc1ccc(S(=O)(=O)N/N=C/c2cccs2)cc1
inactive: [4] 95 % of control | [5] 87 % of control | [6] 93 % of control | [7] 102 % of control

c1ccc(-c2csnn2)cc1
inactive: dose: 25.0 mg/kg/injection, schedule: Q04DX003 (ip), vehicle: saline with Tween-80 99 % of control | dose: 50.0 mg/kg/injection, schedule: Q04DX003 (ip), vehicle: saline with Tween-80 100 % of control | dose: 100.0 mg/kg/injection, schedule: Q04DX003 (ip), vehicle: saline with Tween-80 99 % of control | dose: 200.0 mg/kg/injection, schedule: Q04DX003 (ip), vehicle: saline with Tween-80 106 % of control

COc1cccc(C(c2cc3c(cc2O)OCO3)N2CCCC2)c1O (centres undefined)
inactive: dose: 60.0 mg/kg/injection, schedule: Q01DX005 (ip), vehicle: Klucel (hydroxypropylcellulose) (HPC) 109 % of control | dose: 120.0 mg/kg/injection, schedule: Q01DX005 (ip), vehicle: Klucel (hydroxypropylcellulose) (HPC) 109 % of control | dose: 240.0 mg/kg/injection, schedule: Q01DX005 (ip), vehicle: Klucel (hydroxypropylcellulose) (HPC) 115 % of control

CC(=Nc1ccccc1)C1=C(O)C(CC(C)C)NC1=O (centres undefined)
inactive: [4] 103 % of control | [5] 99 % of control | [6] 100 % of control | [7] 110 % of control

ClC1CC[N-]CC1.ClC1CC[N-]CC1.[Cl][Pt+2]([Cl])([Cl])[Cl]
active: dose: 6.25 mg/kg/injection, schedule: Q01DX009 (ip), vehicle: Klucel (hydroxypropylcellulose) (HPC) 166 % of control | dose: 12.5 mg/kg/injection, schedule: Q01DX009 (ip), vehicle: Klucel (hydroxypropylcellulose) (HPC) 192 % of control | dose: 12.5 mg/kg/injection, schedule: Q01DX009 (ip), vehicle: saline 153 % of control | dose: 25.0 mg/kg/injection, schedule: Q01DX009 (ip), vehicle: Klucel (hydroxypropylcellulose) (HPC) 245 % of control | dose: 25.0 mg/kg/injection, schedule: Q01DX009 (ip), vehicle: saline 172 % of control
inactive: dose: 1.56 mg/kg/injection, schedule: Q01DX009 (ip), vehicle: saline 100 % of control | dose: 3.13 mg/kg/injection, schedule: Q01DX009 (ip), vehicle: saline 108 % of control | dose: 50.0 mg/kg/injection, schedule: Q01DX009 (ip), vehicle: Klucel (hydroxypropylcellulose) (HPC) 113 % of control

CCCCN1CN(CCCC)CN(C(=S)c2c(Cl)cccc2Cl)C1
inactive: dose: 25.0 mg/kg/injection, schedule: Q01DX009 (ip), vehicle: saline with Tween-80 102 % of control | [4] 102 % of control | [5] 105 % of control

CC(C)(CNCc1ccccc1)COS(=O)(=O)O
inactive: dose: 100.0 mg/kg/injection, schedule: Q01DX001 (ip), vehicle: saline 110 % of control | dose: 200.0 mg/kg/injection, schedule: Q01DX001 (ip), vehicle: saline 105 % of control | dose: 400.0 mg/kg/injection, schedule: Q01DX001 (ip), vehicle: saline 100 % of control

CC(=O)OC1C[C@@](C)(O)[C@@]23O[C@@H]2[C@@H]2O[C@]2(C)C3C2OC(=O)C(C)[C@H]12 (some centres undefined)
inactive: dose: 937.5 micrograms/kg/injection, schedule: Q01DX005 (ip), vehicle: Klucel (hydroxypropylcellulose) (HPC) 98 % of control | dose: 1875.0 micrograms/kg/injection, schedule: Q01DX005 (ip), vehicle: Klucel (hydroxypropylcellulose) (HPC) 100 % of control | dose: 3750.0 micrograms/kg/injection, schedule: Q01DX005 (ip), vehicle: Klucel (hydroxypropylcellulose) (HPC) 100 % of control | dose: 7500.0 micrograms/kg/injection, schedule: Q01DX005 (ip), vehicle: Klucel (hydroxypropylcellulose) (HPC) 97 % of control

COP(=O)(O)OC.[U]
inactive: dose: 3.12 mg/kg/injection, schedule: Q01DX009 (ip), vehicle: saline with Tween-80 118 % of control | dose: 6.25 mg/kg/injection, schedule: Q01DX009 (ip), vehicle: saline with Tween-80 118 % of control
